Test results published in patent US9409903B2, “Benzyl substituted triazine derivatives and their therapeutical applications” (NantBioScience, Inc., priority 2009, dated 2016).

What follows are molecules tested against T1, Ret kinase (Homo sapiens, UniProt P07949) (assay: Ret kinase inhibition assay (KinaseProfiler / Kinase Hotspot)). Details: compound at 1 μM.
T1 construct: purchased Millipore (KinaseProfiler service); also Reaction Biology Corp. (Kinase Hotspot)
Format: biochemical
Description: (§1) This example illustrated c-Src kinase, Aurora-A kinase, Flt3 kinase, Ret kinase and TrkA Kinase Assays of selected Compounds from this invention (referred to Daniele Fancelli et al, J. Med. Chem., 2006, 49 (24), pp 7247-7251). The KinaseProfiler™ Service Assay Protocols (Millipore) were used to test the kinase inhibiting activity of novel compounds from this invention. To do this, the buffer composition was as: 20 mM MOPS, 1 mM EDTA, 0.01% Brij-35, 5% Glycerol, 0.1% β-mercaptoethanol, 1 mg/mL BSA. Test compounds were initially dissolved in DMSO at the desired concentration, then serially diluted to the kinase assay buffer. In a final reaction volume of 25 μL, Aurora-A(h) (5-10 mU) is incubated with 8 mM MOPS pH 7.0, 0.2 mM EDTA, 200 μM LRRASLG (Kemptide), 10 mM MgAcetate and [γ^33P-ATP]. The reaction was initiated by the addition of the MgATP mix. After incubation for 40 minute at room temperature, the reaction was stopped by addition of 5 μL of a 3% phosphoric acid solution. 10 μL of the reaction was then spotted onto a P30 filtermat and washed three times for 5 minutes in 50 mM phosphoric acid and once in methanol prior to drying and scintillation counting. Wells containing substrate but no kinase and wells containing a phosphopeptide control were used to set 0% and 100% phosphorylation value, receptively.
(§2) Also Kinase Hotspot^SM kinase assay was used to test the compounds for IC50 or % inhibitions (Reaction Biology Corp.). Inhibitor IC50 values were determined by titration of compound at the optimal kinase concentration (Kinase EC50).

T1 sequence (P07949 29-1114): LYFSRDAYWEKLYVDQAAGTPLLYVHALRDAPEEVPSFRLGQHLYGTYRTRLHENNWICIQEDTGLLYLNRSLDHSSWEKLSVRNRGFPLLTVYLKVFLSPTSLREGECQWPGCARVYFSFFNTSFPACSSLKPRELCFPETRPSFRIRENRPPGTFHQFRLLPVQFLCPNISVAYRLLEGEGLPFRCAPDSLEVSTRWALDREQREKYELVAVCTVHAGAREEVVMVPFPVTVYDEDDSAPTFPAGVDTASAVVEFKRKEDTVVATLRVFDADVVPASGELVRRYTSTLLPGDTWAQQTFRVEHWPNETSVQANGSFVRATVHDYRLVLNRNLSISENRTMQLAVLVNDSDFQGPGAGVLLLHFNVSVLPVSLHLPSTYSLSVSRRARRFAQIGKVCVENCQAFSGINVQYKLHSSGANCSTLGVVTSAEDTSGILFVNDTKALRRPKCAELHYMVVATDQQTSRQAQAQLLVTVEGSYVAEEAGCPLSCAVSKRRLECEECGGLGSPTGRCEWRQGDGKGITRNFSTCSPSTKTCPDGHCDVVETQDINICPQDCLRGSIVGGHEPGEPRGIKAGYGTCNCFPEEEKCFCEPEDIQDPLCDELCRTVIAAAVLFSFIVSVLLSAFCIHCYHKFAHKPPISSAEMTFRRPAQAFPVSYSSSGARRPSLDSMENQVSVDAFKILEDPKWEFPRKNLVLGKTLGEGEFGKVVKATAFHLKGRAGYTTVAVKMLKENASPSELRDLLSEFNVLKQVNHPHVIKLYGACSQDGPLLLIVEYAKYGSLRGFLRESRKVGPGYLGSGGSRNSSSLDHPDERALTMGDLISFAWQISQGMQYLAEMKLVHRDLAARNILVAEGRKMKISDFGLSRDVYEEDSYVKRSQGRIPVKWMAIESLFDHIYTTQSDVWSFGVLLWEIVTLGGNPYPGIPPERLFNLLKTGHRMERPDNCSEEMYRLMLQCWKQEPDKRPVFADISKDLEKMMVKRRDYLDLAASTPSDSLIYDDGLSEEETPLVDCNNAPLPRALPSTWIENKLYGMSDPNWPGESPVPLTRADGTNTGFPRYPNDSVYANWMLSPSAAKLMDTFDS

| inhibition at 1 µM | % Inhibition @1 μM Ret | SMILES |
| --- | --- | --- |
| > 90% |  | C[C@@H](Nc1nc(Nc2cc(-c3ccco3)[nH]n2)nc(N2CCN(C)CC2)n1)c1ccc(F)cc1 [Example 18] |
|  | >90% | C[C@@H](Nc1nc(Nc2cc(-c3ccco3)[nH]n2)nc(N2CCN(C)CC2)n1)c1ccc(F)cc1 [Example 22] |
| < 50% |  | CN1CCN(c2nc(Nc3cc(-c4ccco4)[nH]n3)nc(SCc3ccccc3)n2)CC1 [Example 15] |
| < 50% |  | CN1CCN(c2nc(Nc3cc(-c4ccco4)[nH]n3)nc(OCc3ccccc3)n2)CC1 [Example 14] |

Second part, the molecule before the results:

| SMILES | inhibition at 1 µM | % Inhibition @1 μM Ret |
| --- | --- | --- |
| CN1CCN(c2nc(Nc3cc(-c4ccco4)[nH]n3)nc(SCc3ccc(F)cc3)n2)CC1 [Example 11] | < 50% |  |
| CC(C)c1cnc(Nc2nc(N[C@@H](C)c3ccc(F)cc3)nc(N3CCN(C)CC3)n2)s1 [Example 3] | 50 to 90% |  |
| Cc1cnc(Nc2nc(NCc3ccc4c(c3)OCO4)nc(N3CCN(C)CC3)n2)s1 [Example 6] | 50 to 90% |  |
| CC(C)c1cnc(Nc2nc(NC(C)c3ccc(F)cc3)nc(N3CCN(C)CC3)n2)s1 (stereo not shown) [Example 2] | < 50% |  |
| CN1CCN(c2nc(NCc3ccc(F)cc3)nc(Nc3cc(-c4ccco4)[nH]n3)n2)CC1 [Example 9] | < 50% |  |

What follows are molecules tested against T2, c-Src kinase (Homo sapiens, UniProt P12931) (assay: c-Src kinase inhibition assay (KinaseProfiler / Kinase Hotspot)). Details: compound at 1 μM; read-out: % Inhibition @1 μM cSrc.
T2 construct: purchased Millipore (KinaseProfiler service); also Reaction Biology Corp. (Kinase Hotspot)
Format: biochemical
Description: as §1, §2

T2 sequence (P12931 whole entry): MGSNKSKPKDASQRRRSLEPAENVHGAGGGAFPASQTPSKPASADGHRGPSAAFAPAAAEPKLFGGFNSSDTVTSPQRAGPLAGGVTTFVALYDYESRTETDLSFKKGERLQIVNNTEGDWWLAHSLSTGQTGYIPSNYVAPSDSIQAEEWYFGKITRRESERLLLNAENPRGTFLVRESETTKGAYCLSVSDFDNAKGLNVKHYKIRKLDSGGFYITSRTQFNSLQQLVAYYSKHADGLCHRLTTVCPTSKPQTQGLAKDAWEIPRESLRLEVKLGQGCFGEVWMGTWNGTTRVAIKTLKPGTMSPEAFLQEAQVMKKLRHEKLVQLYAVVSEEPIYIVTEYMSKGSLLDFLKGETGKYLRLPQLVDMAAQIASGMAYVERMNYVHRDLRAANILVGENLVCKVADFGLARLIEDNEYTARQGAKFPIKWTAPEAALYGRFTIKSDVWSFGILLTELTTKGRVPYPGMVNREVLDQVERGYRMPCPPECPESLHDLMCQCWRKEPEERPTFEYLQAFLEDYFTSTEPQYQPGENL

| inhibition at 1 µM | SMILES |
| --- | --- |
| > 90% | C[C@@H](Nc1nc(Nc2cc(-c3ccco3)[nH]n2)nc(N2CCN(C)CC2)n1)c1ccc(F)cc1 [Example 18] |
| < 50% | CN1CCN(c2nc(Nc3cc(-c4ccco4)[nH]n3)nc(SCc3ccccc3)n2)CC1 [Example 15] |
| < 50% | CN1CCN(c2nc(Nc3cc(-c4ccco4)[nH]n3)nc(OCc3ccccc3)n2)CC1 [Example 14] |

Further lines, the molecule ahead of its results:

| SMILES | inhibition at 1 µM |
| --- | --- |
| CN1CCN(c2nc(Nc3cc(-c4ccco4)[nH]n3)nc(SCc3ccc(F)cc3)n2)CC1 [Example 11] | 50 to 90% |
| CC(C)c1cnc(Nc2nc(N[C@@H](C)c3ccc(F)cc3)nc(N3CCN(C)CC3)n2)s1 [Example 3] | > 90% |
| Cc1cnc(Nc2nc(NCc3ccc4c(c3)OCO4)nc(N3CCN(C)CC3)n2)s1 [Example 6] | 50 to 90% |
| CC(C)c1cnc(Nc2nc(NC(C)c3ccc(F)cc3)nc(N3CCN(C)CC3)n2)s1 (stereo not shown) [Example 2] | > 90% |
| CN1CCN(c2nc(NCc3ccc(F)cc3)nc(Nc3cc(-c4ccco4)[nH]n3)n2)CC1 [Example 9] | 50 to 90% |

The molecules below were run against T3, Aurora-A(h) (Homo sapiens, UniProt O14965) (assay: Aurora-A kinase inhibition assay (KinaseProfiler / Kinase Hotspot)). Details: compound at 1 μM.
T3 construct: purchased Millipore (KinaseProfiler service); also Reaction Biology Corp. (Kinase Hotspot)
T3 sequence (O14965 1-403): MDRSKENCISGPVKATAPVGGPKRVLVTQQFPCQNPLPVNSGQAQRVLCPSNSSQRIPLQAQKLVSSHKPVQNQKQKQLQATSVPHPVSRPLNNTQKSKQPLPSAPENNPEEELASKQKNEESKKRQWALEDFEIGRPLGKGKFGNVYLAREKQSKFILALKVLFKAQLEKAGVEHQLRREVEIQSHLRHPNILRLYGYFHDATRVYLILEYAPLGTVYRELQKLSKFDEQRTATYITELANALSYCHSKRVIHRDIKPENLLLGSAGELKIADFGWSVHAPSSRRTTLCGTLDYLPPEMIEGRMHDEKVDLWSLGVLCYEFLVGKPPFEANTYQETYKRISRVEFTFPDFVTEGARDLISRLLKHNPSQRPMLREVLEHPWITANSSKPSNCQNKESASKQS
Format: biochemical
Description: as §1, §2

| inhibition at 1 µM | SMILES |
| --- | --- |
| < 50% | C[C@@H](Nc1nc(Nc2cc(-c3ccco3)[nH]n2)nc(N2CCN(C)CC2)n1)c1ccc(F)cc1 [Example 18] |
| < 50% | CN1CCN(c2nc(Nc3cc(-c4ccco4)[nH]n3)nc(SCc3ccccc3)n2)CC1 [Example 15] |
| < 50% | CN1CCN(c2nc(Nc3cc(-c4ccco4)[nH]n3)nc(OCc3ccccc3)n2)CC1 [Example 14] |

Second part, the molecule before the results:

| SMILES | inhibition at 1 µM |
| --- | --- |
| CN1CCN(c2nc(Nc3cc(-c4ccco4)[nH]n3)nc(SCc3ccc(F)cc3)n2)CC1 [Example 11] | 50 to 90% |
| CC(C)c1cnc(Nc2nc(N[C@@H](C)c3ccc(F)cc3)nc(N3CCN(C)CC3)n2)s1 [Example 3] | 50 to 90% |
| Cc1cnc(Nc2nc(NCc3ccc4c(c3)OCO4)nc(N3CCN(C)CC3)n2)s1 [Example 6] | 50 to 90% |
| CC(C)c1cnc(Nc2nc(NC(C)c3ccc(F)cc3)nc(N3CCN(C)CC3)n2)s1 (stereo not shown) [Example 2] | < 50% |
| CN1CCN(c2nc(NCc3ccc(F)cc3)nc(Nc3cc(-c4ccco4)[nH]n3)n2)CC1 [Example 9] | < 50% |

What follows are molecules tested against T4, Flt3 kinase (Homo sapiens, UniProt P36888) (assay: Flt3 kinase inhibition assay (KinaseProfiler / Kinase Hotspot)). Details: compound at 1 μM.
T4 construct: purchased Millipore (KinaseProfiler service); also Reaction Biology Corp. (Kinase Hotspot)
T4 sequence (P36888 27-993): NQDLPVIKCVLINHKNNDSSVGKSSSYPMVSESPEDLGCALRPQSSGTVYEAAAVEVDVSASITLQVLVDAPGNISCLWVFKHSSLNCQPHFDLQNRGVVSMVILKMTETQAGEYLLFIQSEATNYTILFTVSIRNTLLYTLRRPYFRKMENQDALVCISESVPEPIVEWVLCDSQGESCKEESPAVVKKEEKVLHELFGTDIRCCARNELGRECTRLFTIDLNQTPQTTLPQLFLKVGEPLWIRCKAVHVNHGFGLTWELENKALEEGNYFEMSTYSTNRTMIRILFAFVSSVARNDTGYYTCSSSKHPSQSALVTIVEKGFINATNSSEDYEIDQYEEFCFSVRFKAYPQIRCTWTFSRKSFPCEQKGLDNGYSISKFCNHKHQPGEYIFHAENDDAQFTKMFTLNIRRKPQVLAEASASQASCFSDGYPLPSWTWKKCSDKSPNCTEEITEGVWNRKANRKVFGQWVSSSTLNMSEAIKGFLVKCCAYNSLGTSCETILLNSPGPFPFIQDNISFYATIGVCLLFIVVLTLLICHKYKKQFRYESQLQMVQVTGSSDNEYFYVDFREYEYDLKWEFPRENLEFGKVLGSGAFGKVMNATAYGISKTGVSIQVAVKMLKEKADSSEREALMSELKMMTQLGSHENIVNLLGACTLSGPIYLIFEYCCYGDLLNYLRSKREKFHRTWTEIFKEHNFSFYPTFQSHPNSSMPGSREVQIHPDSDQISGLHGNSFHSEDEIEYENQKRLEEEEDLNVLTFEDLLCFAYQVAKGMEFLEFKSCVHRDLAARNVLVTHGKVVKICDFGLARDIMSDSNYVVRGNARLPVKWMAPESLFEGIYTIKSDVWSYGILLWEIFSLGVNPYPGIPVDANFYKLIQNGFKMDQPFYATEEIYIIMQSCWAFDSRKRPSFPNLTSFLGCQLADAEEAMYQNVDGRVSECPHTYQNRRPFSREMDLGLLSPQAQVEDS
Format: biochemical
Description: as §1, §2

| inhibition at 1 µM | % Inhibition @1 μM Flt3 | SMILES |
| --- | --- | --- |
| > 90% |  | C[C@@H](Nc1nc(Nc2cc(-c3ccco3)[nH]n2)nc(N2CCN(C)CC2)n1)c1ccc(F)cc1 [Example 18] |
|  | >90% | C[C@@H](Nc1nc(Nc2cc(-c3ccco3)[nH]n2)nc(N2CCN(C)CC2)n1)c1ccc(F)cc1 [Example 22] |
| > 90% |  | CN1CCN(c2nc(Nc3cc(-c4ccco4)[nH]n3)nc(SCc3ccccc3)n2)CC1 [Example 15] |
| > 90% |  | CN1CCN(c2nc(Nc3cc(-c4ccco4)[nH]n3)nc(OCc3ccccc3)n2)CC1 [Example 14] |

The next lines start with the molecule.

| SMILES | inhibition at 1 µM | % Inhibition @1 μM Flt3 |
| --- | --- | --- |
| CN1CCN(c2nc(Nc3cc(-c4ccco4)[nH]n3)nc(SCc3ccc(F)cc3)n2)CC1 [Example 11] | > 90% |  |
| CC(C)c1cnc(Nc2nc(N[C@@H](C)c3ccc(F)cc3)nc(N3CCN(C)CC3)n2)s1 [Example 3] | > 90% |  |
| Cc1cnc(Nc2nc(NCc3ccc4c(c3)OCO4)nc(N3CCN(C)CC3)n2)s1 [Example 6] | > 90% |  |
| CC(C)c1cnc(Nc2nc(NC(C)c3ccc(F)cc3)nc(N3CCN(C)CC3)n2)s1 (stereo not shown) [Example 2] | > 90% |  |
| CN1CCN(c2nc(NCc3ccc(F)cc3)nc(Nc3cc(-c4ccco4)[nH]n3)n2)CC1 [Example 9] | > 90% |  |

These molecules were tested against T5, TrkA Kinase (Homo sapiens, UniProt P04629) (assay: TrkA kinase inhibition assay (KinaseProfiler / Kinase Hotspot)). Details: compound at 1 μM.
T5 construct: purchased Millipore (KinaseProfiler service); also Reaction Biology Corp. (Kinase Hotspot)
Format: biochemical
Description: as §1, §2

T5 sequence (P04629 33-796): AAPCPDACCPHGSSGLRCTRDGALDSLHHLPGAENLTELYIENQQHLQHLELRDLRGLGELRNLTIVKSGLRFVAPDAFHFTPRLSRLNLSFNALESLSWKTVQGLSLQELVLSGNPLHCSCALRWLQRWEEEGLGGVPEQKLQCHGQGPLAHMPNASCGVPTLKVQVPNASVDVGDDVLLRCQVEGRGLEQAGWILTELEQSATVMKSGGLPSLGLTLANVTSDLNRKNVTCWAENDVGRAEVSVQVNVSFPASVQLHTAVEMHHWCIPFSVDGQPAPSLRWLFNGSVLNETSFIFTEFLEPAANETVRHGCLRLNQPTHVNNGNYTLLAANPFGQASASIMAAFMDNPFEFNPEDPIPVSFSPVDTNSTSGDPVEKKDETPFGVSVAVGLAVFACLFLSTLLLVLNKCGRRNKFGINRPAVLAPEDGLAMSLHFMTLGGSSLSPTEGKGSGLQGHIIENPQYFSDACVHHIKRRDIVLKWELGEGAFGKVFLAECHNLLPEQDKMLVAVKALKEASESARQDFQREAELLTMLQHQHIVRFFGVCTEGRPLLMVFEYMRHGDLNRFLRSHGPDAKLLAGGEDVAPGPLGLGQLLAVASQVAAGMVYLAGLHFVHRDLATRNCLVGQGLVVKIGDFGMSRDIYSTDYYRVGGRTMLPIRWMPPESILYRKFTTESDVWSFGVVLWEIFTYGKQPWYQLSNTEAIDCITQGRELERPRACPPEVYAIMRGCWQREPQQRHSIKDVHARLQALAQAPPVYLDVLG

| inhibition at 1 µM | % Inhibition @1 μM TrkA | SMILES |
| --- | --- | --- |
| > 90% |  | C[C@@H](Nc1nc(Nc2cc(-c3ccco3)[nH]n2)nc(N2CCN(C)CC2)n1)c1ccc(F)cc1 [Example 18] |
|  | >90% | C[C@@H](Nc1nc(Nc2cc(-c3ccco3)[nH]n2)nc(N2CCN(C)CC2)n1)c1ccc(F)cc1 [Example 22] |
| > 90% |  | CN1CCN(c2nc(Nc3cc(-c4ccco4)[nH]n3)nc(SCc3ccccc3)n2)CC1 [Example 15] |
| > 90% |  | CN1CCN(c2nc(Nc3cc(-c4ccco4)[nH]n3)nc(OCc3ccccc3)n2)CC1 [Example 14] |

The remaining lines, values behind:

| SMILES | inhibition at 1 µM | % Inhibition @1 μM TrkA |
| --- | --- | --- |
| CN1CCN(c2nc(Nc3cc(-c4ccco4)[nH]n3)nc(SCc3ccc(F)cc3)n2)CC1 [Example 11] | > 90% |  |
| CC(C)c1cnc(Nc2nc(N[C@@H](C)c3ccc(F)cc3)nc(N3CCN(C)CC3)n2)s1 [Example 3] | > 90% |  |
| Cc1cnc(Nc2nc(NCc3ccc4c(c3)OCO4)nc(N3CCN(C)CC3)n2)s1 [Example 6] | > 90% |  |
| CC(C)c1cnc(Nc2nc(NC(C)c3ccc(F)cc3)nc(N3CCN(C)CC3)n2)s1 (stereo not shown) [Example 2] | > 90% |  |
| CN1CCN(c2nc(NCc3ccc(F)cc3)nc(Nc3cc(-c4ccco4)[nH]n3)n2)CC1 [Example 9] | > 90% |  |
